Experimental findings from patent US5104862A, “Bethalactam elastase inhibitors containing phosphorous acid derivatives at the 4-position of the 2-azetidinone” (Merck & Co., Inc., priority 1991, dated 1992) are described below.

This assay concerns the target T1, human polymorphonuclear leukocyte elastase (human granulocyte elastase) (Homo sapiens, UniProt P08246).
T1 construct: Crude extract of human polymorphonuclear leukocytes (PMN) containing elastase activity; endogenous in cells; host or cells: human polymorphonuclear leukocytes (crude extract)
T1 sequence (P08246 30-267): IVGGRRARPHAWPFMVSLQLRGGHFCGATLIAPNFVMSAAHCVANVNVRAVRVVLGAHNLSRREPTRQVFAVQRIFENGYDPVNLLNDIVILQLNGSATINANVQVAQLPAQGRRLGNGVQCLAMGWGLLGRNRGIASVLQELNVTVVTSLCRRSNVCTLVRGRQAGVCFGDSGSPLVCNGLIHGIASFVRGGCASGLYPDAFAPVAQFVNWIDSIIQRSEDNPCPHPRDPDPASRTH
Put plainly: Enzyme assay for inhibition of human polymorphonuclear leukocyte elastase via hydrolysis of Boc-AAPAN or Boc-AAPVN. The class given is biochemical. Particulars: crude extract of human PMN; 0.2 mM Boc-AAPAN or Boc-AAPVN; 0.05M TES buffer pH 7.5; read-out: kobs /I, second order rate constant for inactivation of the enzyme. As for the experimental part: Enzyme Assays for the Inhibition of Human Polymorphonuclear Leukocyte Elastase Via Hydrolysis of N-t-Boc-alanyl-alanyl-prolyl-alanine-p-nitroanilide (Boc-AAPAN) or N-t-Boc-alanyl-prolyl-valine-p-nitroanilide (Boc-AAPVN) Reagent
0.05M TES (N-tris[hydroxymethyl]methyl-2-amino-ethanesulfonic acid) Buffer, pH 7.5.
0.2 mM Boc-AAPAN or Boc-AAPVN.
To prepare substrate, the solid was first dissolved in 10.0 ml DMSO. Buffer at pH 7.5 was then added to a final volume of 100 ml.
Crude extract of human polymorphonuclear leukocytes (PMN) containing elastase activity.
Inhibitors (azetidinones) to be tested dissolved in DMSO just before use.
To 1.0 ml of 0.2 mM Boc-AAPAN in a cuvette, 0.01-0.1 ml of DMSO with or without inhibitor was added. After mixing, a measurement was taken at 410 mμ to detect any spontaneous hydrolysis due to presence of test compound. 0.05 Milliliters of PMN extract was then added and the ΔOD/min at 410 mμ was measured and recorded. Beckman model 35 spectrophotometer was used.
The elastase activity in the crude PMN extract may vary from one preparation to another. A control of each new batch is run, and the volume added in the assay procedure is adjusted according to activity.
With `CCC[C@@H](NC(=O)N1C(=O)C(CC)(CC)[C@@H]1Oc1ccc(CP(=O)(O)c2ccccc2)cc1)c1ccc(C)cc1` [Example 2], the kinact/KI amounted to 1.2e+06 M⁻¹ s⁻¹.
As to `C=CCP(=O)(Cc1ccc(O[C@@H]2N(C(=O)N[C@H](CCC)c3ccc(C)cc3)C(=O)C2(CC)CC)cc1)OCC` (stereo partly drawn) [Example 3, (4S)-3,3-Diethyl-1-[(R)-α-n-propyl(4-methyl)-benzylaminocarbonyl]-4-[4-(allyl(ethoxyphosphinyl)methyl)phenoxy]-azetidin-2-one], the kinact/KI stood at 1.3e+06 M⁻¹ s⁻¹.
To `C=CCP(=O)(O)Cc1ccc(O[C@@H]2N(C(=O)N[C@H](CCC)c3ccc(C)cc3)C(=O)C2(CC)CC)cc1` [Example 4, (4S)-3,3-Diethyl-1-[(R)-α-n-propyl(4-methyl)-benzylaminocarbonyl]-4-[4-(allyl(hydroxyphosphinyl)methyl)phenoxy]-azetidin-2-one] belongs 740000 M⁻¹ s⁻¹; to `CCC[C@@H](NC(=O)N1C(=O)C(CC)(CC)[C@@H]1Oc1ccc(CP(C)(=O)O)cc1)c1ccc(C)cc1` [Example 6, (4S)-3,3-Diethyl-1-[(R)-α-n-propyl(4-methyl)-benzylaminocarbonyl]-4-[4-(methyl(hydroxyphosphinyl)methyl)phenoxy]-azetidin-2-one], 420000 M⁻¹ s⁻¹.
On to `CCC[C@@H](NC(=O)N1C(=O)C(CC)(CC)[C@@H]1Oc1ccc(CP(=O)(O)CCC)cc1)c1ccc(C)cc1` [Example 8, (4S)-3,3-Diethyl-1-[(R)-α-n-propyl(4-methyl)-benzylaminocarbonyl]-4-[4-(n-propyl(hydroxyphosphinyl)methyl)-phenoxy]-azetidin-2-one], for which the kinact/KI was 910000 M⁻¹ s⁻¹.
